The source made the active and inactive calls.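 How the source made its calls: active means IC50 at or below a set limit above the highest tested dose; inconclusive means flat curve with 30 to 70% inhibition, or poor fit; inactive means the rest.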
target: Glycogen synthase kinase-3 beta (Homo sapiens) (UniProt P49841); assay: concentration-response blocking of human GSK3B – biochemical, luminescence, cell-free homogeneous, retest, dose response (AID 434954); details: recombinant GSK3beta, ADP-Glo luminescence, 60 min
Sequence (P49841 whole entry, looked up): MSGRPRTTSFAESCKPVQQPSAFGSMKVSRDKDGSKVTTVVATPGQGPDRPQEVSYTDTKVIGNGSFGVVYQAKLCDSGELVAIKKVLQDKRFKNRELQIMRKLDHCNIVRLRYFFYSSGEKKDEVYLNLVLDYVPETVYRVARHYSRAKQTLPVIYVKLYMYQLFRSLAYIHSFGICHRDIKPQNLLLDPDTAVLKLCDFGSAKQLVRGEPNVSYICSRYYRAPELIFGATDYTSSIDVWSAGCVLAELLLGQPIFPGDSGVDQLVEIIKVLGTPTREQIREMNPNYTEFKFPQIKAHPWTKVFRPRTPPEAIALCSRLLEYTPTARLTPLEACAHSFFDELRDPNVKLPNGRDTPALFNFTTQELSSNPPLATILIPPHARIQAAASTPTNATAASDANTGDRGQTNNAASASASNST

**Q.** Which IC50 does the source give for CC1=C(C(=O)OCC2CCCO2)C(c2ccc(O)cc2)NC(=O)N1 (centres undefined) here?
**A.** Its IC50 is > 30 µM (inactive).

**Q.** Which IC50 does the source give for Cc1c(C#N)c(O)[nH]c(=O)c1N=Nc1ccc(Br)cc1C(=O)O here?
**A.** The IC50 was > 30 µM (inactive).

**Q.** N#CCCn1cc(/C=N/O)c(-c2ccc(-c3ccccc3)cc2)n1 was tested. Which IC50 did it give?
**A.** The IC50 was > 30 µM (inactive).

**Q.** O=[N+]([O-])c1ccc2[nH]c(O)c(N=NC3CS(=O)(=O)CC3O)c2c1 (centres undefined) was tested. Which IC50 did it give?
**A.** The IC50 was 23 µM.

**Q.** Which IC50 does the source give for O/N=C/c1ccc(OCc2ccccc2)c(Cl)c1 here?
**A.** Its IC50 is > 30 µM (inactive).

**Q.** Cc1cccc(N=Nc2c(C)c(C#N)c(O)[nH]c2=O)c1 was tested. Which IC50 did it give?
**A.** Its IC50 is 0.775 µM.

**Q.** How did the IC50 turn out when C=CCOC(=O)C1=C(C)Nc2ncnn2C1c1cccs1 (centres undefined) was run?
**A.** Its IC50 is > 30 µM (inactive).

**Q.** With COC(=O)c1ccc(N2C(=O)CC(N3CCN(C(=O)c4ccco4)CC3)C2=O)cc1 (centres undefined) as the molecule, how does the IC50 read?
**A.** The IC50 was > 30 µM (inactive).

**Q.** How did the IC50 turn out when Nc1ncnc2c1ncn2C1OC(CO)C(O)C1O (centres undefined) was run?
**A.** The IC50 was > 30 µM (inactive).

**Q.** For COc1cc(/C=N/O)ccc1OCc1ccccc1Cl, which IC50 is on record?
**A.** Its IC50 is > 30 µM (inactive).

**Q.** How did the IC50 turn out when CC(C)Sc1nc2c(c(=O)[nH]1)C(c1cccs1)C1=C(CC(C)(C)CC1=O)N2 (centres undefined) was run?
**A.** Its IC50 is > 30 µM (inactive).

**Q.** How did the IC50 turn out when O=c1[nH]c(=O)n(CCc2ccc(F)cc2)c(O)c1/C=N/N1CCCCC1 was run?
**A.** Its IC50 is > 30 µM (inactive).

**Q.** How did the IC50 turn out when CC1=C(C(=O)OCc2ccccc2)C(c2ccccc2OC(F)F)NC(=O)N1 (centres undefined) was run?
**A.** The IC50 was 4.4 µM.

**Q.** With CCOc1cc(C2Nc3ccccc3NC3=C2C(=O)CC(C)(C)C3)ccc1O (centres undefined) as the molecule, how does the IC50 read?
**A.** The IC50 was > 30 µM (inactive).

**Q.** Which IC50 does the source give for COc1ccc(-c2nn(-c3ccccc3)cc2/C=N/N2C(=O)CSC2=S)cc1 here?
**A.** The IC50 was > 30 µM (inactive).

**Q.** With Nc1ncnc2c1ncn2[C@@H]1O[C@H](COP(=O)(O)O)[C@@H](O)[C@H]1O as the molecule, how does the IC50 read?
**A.** Its IC50 is > 30 µM (inactive).

**Q.** How did the IC50 turn out when COc1cccc(/C=N/Nc2cc(Cl)nc(C)n2)c1O was run?
**A.** The IC50 was > 30 µM (inactive).

**Q.** For Cc1cc(-c2[nH]nc3c2C(c2cccc(O)c2)C(C#N)=C(N)O3)c(C)s1 (centres undefined), which IC50 is on record?
**A.** The IC50 was 25.4 µM.

**Q.** COc1cccc(C2C3=C(CCCC3=O)Nc3[nH]n(-c4ccccc4)c(=O)c32)c1 (centres undefined) was tested. Which IC50 did it give?
**A.** Its IC50 is > 30 µM (inactive).

**Q.** With CC1(C)CC(=O)C2=C(C1)Nc1ccccc1NC2c1ccc(F)cc1 (centres undefined) as the molecule, how does the IC50 read?
**A.** Its IC50 is > 30 µM (inactive).

**Q.** For COc1cccc(C2C(C(=O)OCc3ccccc3)=C(C)Nc3ncnn32)c1OC (centres undefined), which IC50 is on record?
**A.** Its IC50 is 3.82 µM.

**Q.** For COc1ccc(-c2nn(-c3ccccc3)cc2/C=N/Nc2ccc3ccccc3n2)cc1OC, which IC50 is on record?
**A.** The IC50 was > 30 µM (inactive).

**Q.** Which IC50 does the source give for CCOC(=O)c1sc2c(c1C)C(c1cccs1)C1=C(CCCC1=O)N2 (centres undefined) here?
**A.** Its IC50 is > 30 µM (inactive).

**Q.** For CC1=C(C(=O)N2CCCCC2)C(c2cccs2)C2=C(CCCC2=O)N1 (centres undefined), which IC50 is on record?
**A.** Its IC50 is > 30 µM (inactive).

**Q.** With Cc1[nH]nc2c1C(c1cccc(O)c1)C1=C(CC(C)(C)CC1=O)N2 (centres undefined) as the molecule, how does the IC50 read?
**A.** Its IC50 is 0.421 µM.

**Q.** With NS(=O)(=O)c1ccc(N=Nc2c(O)[nH]c3ccc(Br)cc23)cc1 as the molecule, how does the IC50 read?
**A.** The IC50 was > 30 µM (inactive).

**Q.** Which IC50 does the source give for O=C1CC(SC(=Nc2ccccc2)Nc2ccccc2)C(=O)N1c1cccc2ccccc12 (centres undefined) here?
**A.** The IC50 was > 30 µM (inactive).

**Q.** With CCOC(=O)C1=C(C)Nc2ncnn2C1c1cccnc1 (centres undefined) as the molecule, how does the IC50 read?
**A.** Its IC50 is > 30 µM (inactive).

**Q.** With CCOC(=O)/C(C(=O)Nc1ccc(Cl)cc1Cl)=C1/NC(C)(C)Cc2ccccc21 as the molecule, how does the IC50 read?
**A.** The IC50 was > 30 µM (inactive).

**Q.** How did the IC50 turn out when O=C1CCCC2=C1C(c1cccs1)n1nc(SCc3ccccc3)nc1N2 (centres undefined) was run?
**A.** The IC50 was > 30 µM (inactive).

**Q.** With Cc1cc(=O)[nH]c(N/N=C/c2ccc(-c3ccc([N+](=O)[O-])cc3)o2)n1 as the molecule, how does the IC50 read?
**A.** The IC50 was > 30 µM (inactive).

**Q.** Which IC50 does the source give for O/N=C/c1cn(-c2ccccc2)nc1-c1cccnc1 here?
**A.** Its IC50 is 6.45 µM.

**Q.** Which IC50 does the source give for CCOc1cc(C2C3=C(CC(C)(C)CC3=O)Nc3n[nH]c(C)c32)ccc1O (centres undefined) here?
**A.** Its IC50 is 3.32 µM.

**Q.** With Cc1c(C(=O)O)cccc1-n1c(C)cc(/C=N/Nc2ccc([N+](=O)[O-])cn2)c1C as the molecule, how does the IC50 read?
**A.** Its IC50 is 21.3 µM.

**Q.** For Cc1ccccc1CSc1nc2n(n1)C(c1cccs1)C1=C(CCCC1=O)N2 (centres undefined), which IC50 is on record?
**A.** The IC50 was > 30 µM (inactive).

**Q.** How did the IC50 turn out when Cc1c(C=Nc2ccc(S(=O)(=O)N(C)C)cc2)c(O)[nH]c(=O)c1C#N was run?
**A.** Its IC50 is > 30 µM (inactive).

**Q.** For O=C(O)c1ccccc1N/N=C\c1ccnc2ccccc12, which IC50 is on record?
**A.** The IC50 was > 30 µM (inactive).

**Q.** How did the IC50 turn out when COc1cc(/C=N\Nc2ccc([N+](=O)[O-])cc2)ccc1OCC(=O)Nc1ccc(C)c(C)c1 was run?
**A.** The IC50 was > 30 µM (inactive).

**Q.** COc1ccc(-c2nn(CCC#N)cc2/C=N/O)cc1OC was tested. Which IC50 did it give?
**A.** Its IC50 is > 30 µM (inactive).

**Q.** For CCOC(=O)C1=C(CN2CCSCC2)NC(=O)NC1c1cc(C)ccc1C (centres undefined), which IC50 is on record?
**A.** Its IC50 is > 30 µM (inactive).

**Q.** With Nc1nc(F)nc2c1ncn2[C@@H]1O[C@H](CO)[C@@H](O)[C@H]1O as the molecule, how does the IC50 read?
**A.** Its IC50 is > 30 µM (inactive).

**Q.** How did the IC50 turn out when COc1cc(/C=N/Nc2nc(Nc3ccccc3)nc(N3CCCCC3)n2)ccc1OCC(=O)O was run?
**A.** Its IC50 is > 30 µM (inactive).

**Q.** For Oc1[nH]c2ccccc2c1C=Nc1ccc2c(c1)OCO2, which IC50 is on record?
**A.** Its IC50 is 11.4 µM.

**Q.** With CCOc1ccc(N2C(=O)C(Cl)=C(Nc3ccccc3O)C2=O)cc1 as the molecule, how does the IC50 read?
**A.** The IC50 was > 30 µM (inactive).

**Q.** How did the IC50 turn out when COCCOC(=O)C1=C(C)Nc2ncnn2C1c1ccccc1 (centres undefined) was run?
**A.** Its IC50 is > 30 µM (inactive).

**Q.** For COc1ccc(-c2nn(-c3ccccc3)cc2/C=N/Nc2ccc(Cl)c(C(=O)O)c2)cc1OC, which IC50 is on record?
**A.** The IC50 was > 30 µM (inactive).

**Q.** Which IC50 does the source give for O=C1CCCC2=C1C(c1cccs1)n1ncnc1N2 (centres undefined) here?
**A.** Its IC50 is > 30 µM (inactive).

**Q.** For CCOc1ccc(/C=N/Nc2ccccn2)cc1OC, which IC50 is on record?
**A.** Its IC50 is > 30 µM (inactive).

**Q.** Which IC50 does the source give for N#CC(C#N)=C1NC(N)=C(C#N)C(c2ccccc2)=C1C#N here?
**A.** Its IC50 is 19.2 µM.

**Q.** Which IC50 does the source give for O=C(O)c1cc(-c2ccc(/C=N/Nc3ccc(Cl)cc3)o2)ccc1Cl here?
**A.** The IC50 was > 30 µM (inactive).

**Q.** Which IC50 does the source give for CCCCCCn1c(O)c(C=NCCCn2ccnc2)c(=O)[nH]c1=O here?
**A.** Its IC50 is 14.3 µM.

**Q.** With COc1cc(CN=Cc2c(O)n(C(C)(C)C)c(=O)[nH]c2=O)cc(OC)c1 as the molecule, how does the IC50 read?
**A.** The IC50 was > 30 µM (inactive).

**Q.** For Cc1ccc(C2C3=C(CC(C)(C)CC3=O)Nc3onc(C)c32)cc1 (centres undefined), which IC50 is on record?
**A.** Its IC50 is > 30 µM (inactive).

**Q.** For Cc1noc2c1C(c1ccc(N(C)C)cc1)C1=C(CC(C)(C)CC1=O)N2 (centres undefined), which IC50 is on record?
**A.** The IC50 was > 30 µM (inactive).

**Q.** With CC(C)n1c(O)c(C=NCc2cccnc2)c(=O)[nH]c1=S as the molecule, how does the IC50 read?
**A.** Its IC50 is > 30 µM (inactive).

**Q.** With Cc1[nH]nc2c1C(c1cccs1)C1=C(CCCC1=O)N2 (centres undefined) as the molecule, how does the IC50 read?
**A.** The IC50 was 10.6 µM.

**Q.** For CC1(C)CC(=O)C2=C(C1)NC1=C(C(=O)c3ccccc31)C2c1ccc(O)cc1 (centres undefined), which IC50 is on record?
**A.** Its IC50 is > 30 µM (inactive).

**Q.** For Cc1nn(-c2ccccn2)c2c1C(c1ccncc1)C1=C(CC(C)(C)CC1=O)N2 (centres undefined), which IC50 is on record?
**A.** The IC50 was > 30 µM (inactive).

**Q.** How did the IC50 turn out when Cc1[nH]nc2c1C(c1ccc(N(C)C)cc1)C1=C(CC(C)(C)CC1=O)N2 (centres undefined) was run?
**A.** The IC50 was 28 µM.

**Q.** With CCCCOC(=O)C1=C(C)Nc2ncnn2C1c1cc(OC)c(OC)cc1OC (centres undefined) as the molecule, how does the IC50 read?
**A.** Its IC50 is > 30 µM (inactive).

**Q.** O=C(O)c1ccc(N/N=C/c2ccc(-c3cccc(Cl)c3)o2)cc1 was tested. Which IC50 did it give?
**A.** Its IC50 is > 30 µM (inactive).

**Q.** How did the IC50 turn out when COc1ccc(OC)c(C2Nc3ccccc3NC3=C2C(=O)CC(C)(C)C3)c1 (centres undefined) was run?
**A.** Its IC50 is > 30 µM (inactive).

**Q.** With CC1(C)CC(=O)C2=C(C1)Nc1ccccc1NC2c1cccs1 (centres undefined) as the molecule, how does the IC50 read?
**A.** Its IC50 is > 30 µM (inactive).

**Q.** How did the IC50 turn out when C=CCOc1ccc(/C=N/Nc2ccccn2)cc1OC was run?
**A.** Its IC50 is > 30 µM (inactive).

**Q.** Which IC50 does the source give for Cc1ccccc1/C=N/Nc1ncnc2nc[nH]c12 here?
**A.** Its IC50 is 17.1 µM.

**Q.** With CC1=C(C(=O)Nc2ccccc2F)C(c2cccs2)C2=C(CCCC2=O)N1 (centres undefined) as the molecule, how does the IC50 read?
**A.** The IC50 was > 30 µM (inactive).

**Q.** For Oc1ccc(/C=N/Nc2ncc(Br)cn2)c(O)c1, which IC50 is on record?
**A.** Its IC50 is 12.3 µM.

**Q.** Which IC50 does the source give for C(=N\Nc1nccc(-c2cccnc2)n1)/c1ccccc1 here?
**A.** The IC50 was 16.9 µM.

**Q.** How did the IC50 turn out when CCOC(=O)C1=C(C)Nc2ncnn2C1c1ccc2c(c1)OCO2 (centres undefined) was run?
**A.** The IC50 was > 30 µM (inactive).
